The record followed here is ChEMBL document CHEMBL1201862, “PubChem BioAssay data set” (2004).

Some test systems named below: MDA-MB-435; M14; NCI-H460; SNB-75; HT-29; SR; OVCAR-3; DU-145; EKVX; SNB-19; OVCAR-8; NCI-H226; SN12C; OVCAR-5; NCI-H23; HCC 2998; UO-31; RPMI-8226; SK-MEL-28; MCF7.
Common to all, as to assay: growth of human tumour cells (NCI), 48 h

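Cultured in 96-well plates, cells were exposed to test compound for 48 hours across five concentrations. At the GI50, growth is halved.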 The source made the active and inactive calls. Cut-off read from the data, not from the text of the source: active = GI50 up to about 1.1 µM and inactive = higher.

Turning to `CCOC(=O)c1cc(-c2ccc([N+](=O)[O-])cc2)c([N+](=O)[O-])[nH]1`, the GI50 was 2.75 µM (inactive) in the assay on MDA-MB-435; > 10 µM (inactive) with M14; 2.26 µM (inactive) in the assay with NCI-H460; > 10 µM (inactive) in the assay with SNB-75; 2.69 µM (inactive) with HT-29; 1.76 µM (inactive) in the assay on SR. Further, the GI50 with OVCAR-3 was 2.7 µM (inactive); in the assay with DU-145 it was 2.96 µM (inactive); in the assay with EKVX it was 2.51 µM (inactive); with SNB-19, 2.91 µM (inactive); in the assay with OVCAR-8, 4.24 µM (inactive); in the assay on NCI-H226 it was 1.46 µM (inactive). In addition, the GI50 in the assay on SN12C is > 10 µM (inactive); in the assay on OVCAR-5, 5.47 µM (inactive); in the assay on NCI-H23 it was 2.84 µM (inactive); in the assay on HCC 2998 it was 4.38 µM (inactive); in the assay with UO-31, 2.42 µM (inactive).
For the compound `COC(=O)C12OCC34C(CC5C(C)C6=CC(=O)OC6=CC5(C)C3C(O)C1O)OC(=O)C(OC(C)=O)C24` (stereo not drawn), the GI50 was 14.3 µM (inactive) with M14; 21.3 µM (inactive) in the assay with NCI-H460; 12.1 µM (inactive) with RPMI-8226; 0.887 µM (active) in the assay on SNB-75; 16.3 µM (inactive) in the assay with HT-29; 18.3 µM (inactive) in the assay with SR. Also, the GI50 in the assay on SK-MEL-28 is 15.5 µM (inactive); in the assay on OVCAR-3, 14.3 µM (inactive); with EKVX, 16.7 µM (inactive); with SNB-19 it was 33.2 µM (inactive); with OVCAR-8 it was 16.3 µM (inactive); in the assay on NCI-H226, 24.8 µM (inactive). In addition, the GI50 with SN12C is 17.1 µM (inactive); in the assay with OVCAR-5, 23.1 µM (inactive); in the assay on NCI-H23, 15.1 µM (inactive); with HCC 2998, 16.1 µM (inactive); with UO-31, 24.4 µM (inactive).
`O=C1C(Cl)=C(OCCCCl)C(=O)c2c(O)ccc(O)c21`: the GI50 is 1.55 µM (inactive) in the assay with MCF7; 1.43 µM (inactive) in the assay on M14; 6.61 µM (inactive) in the assay with NCI-H460; 1.37 µM (inactive) in the assay with RPMI-8226; 2 µM (inactive) in the assay with SNB-75; 2.03 µM (inactive) in the assay with HT-29. For the same compound, the GI50 is 0.0836 µM (active) in the assay with SR; 2.08 µM (inactive) in the assay with SK-MEL-28; 2.42 µM (inactive) in the assay on OVCAR-3; 9.73 µM (inactive) in the assay with DU-145; 17.7 µM (inactive) in the assay with EKVX; 18.3 µM (inactive) in the assay with SNB-19. In addition, the GI50 is 7.06 µM (inactive) in the assay with OVCAR-8; 16.9 µM (inactive) in the assay on NCI-H226; 2.26 µM (inactive) in the assay with SN12C; 12.4 µM (inactive) in the assay with OVCAR-5; 2.19 µM (inactive) in the assay on NCI-H23; 14.8 µM (inactive) in the assay with HCC 2998. Moreover, the GI50 in the assay with UO-31 is 6.55 µM (inactive).
Turning to `CC(=O)O[C@H]1C[C@@H](OC(C)=O)[C@@](C)(O)[C@@H]2[C@@H](OC(C)=O)[C@@]3(O)[C@H](/C=C(/CCl)[C@H]4O[C@H]4[C@@H](OC(C)=O)[C@@]12C)OC(=O)[C@@H]3C`, the GI50 in the assay with MDA-MB-435 is 19.7 µM (inactive); with M14 it was > 25 µM (inactive); in the assay on NCI-H460 it was > 25 µM (inactive); in the assay with RPMI-8226, 9.89 µM (inactive); in the assay on SNB-75, > 25 µM (inactive); with HT-29, > 25 µM (inactive). The GI50 in the assay with SK-MEL-28 was 17.4 µM (inactive); in the assay with OVCAR-3 it was > 25 µM (inactive); in the assay with DU-145, > 25 µM (inactive); with EKVX, > 25 µM (inactive); in the assay with SNB-19 it was > 25 µM (inactive); with OVCAR-8, > 25 µM (inactive). For the same compound, the GI50 in the assay on NCI-H226, in the assay with SN12C, in the assay on OVCAR-5, with NCI-H23, in the assay with HCC 2998 and in the assay on UO-31 was > 25 µM (inactive) in each case.
For `O=C1C=C(Nc2ccc(S(=O)(=O)Nc3nccs3)cc2)c2ccccc2C1=O`, the GI50 was 17.7 µM (inactive) in the assay on MDA-MB-435; 18.9 µM (inactive) in the assay on MCF7; 21.9 µM (inactive) with M14; 34 µM (inactive) in the assay with NCI-H460; 37.3 µM (inactive) with RPMI-8226; 21.5 µM (inactive) in the assay with SNB-75. Moreover, the GI50 with HT-29 was 19.1 µM (inactive); in the assay with SR, 39.5 µM (inactive); in the assay with SK-MEL-28, 16.5 µM (inactive); with OVCAR-3 it was 17 µM (inactive); in the assay with EKVX it was 26.4 µM (inactive); in the assay with SNB-19, 29.4 µM (inactive). Besides, the GI50 in the assay with OVCAR-8 is 23.1 µM (inactive); with NCI-H226 it was 21.9 µM (inactive); in the assay with SN12C it was 24.6 µM (inactive); in the assay on OVCAR-5 it was 17.5 µM (inactive); with NCI-H23, 35.6 µM (inactive); in the assay with HCC 2998, 22.2 µM (inactive). The GI50 in the assay with UO-31 was 56.9 µM (inactive).
Consider `COc1cccc(C=C(C#N)C#N)c1OC`, for which the GI50 in the assay on MCF7 was > 100 µM (inactive); in the assay with M14 it was > 100 µM (inactive); in the assay on NCI-H460, > 100 µM (inactive); in the assay with RPMI-8226, 43.5 µM (inactive); in the assay on SNB-75, 43.2 µM (inactive); with HT-29, > 100 µM (inactive). Also, the GI50 in the assay with SR, in the assay with SK-MEL-28, with OVCAR-3, in the assay with DU-145, in the assay on EKVX and in the assay with SNB-19 was > 100 µM (inactive) each time. The GI50 in the assay with OVCAR-8, with NCI-H226, in the assay on SN12C, in the assay with OVCAR-5, in the assay with NCI-H23 and in the assay on HCC 2998 was > 100 µM (inactive) in each case. The GI50 with UO-31 was > 100 µM (inactive).
For the compound `CC1=NN(C(=O)Cc2ccccc2)C(=O)/C1=C\c1cccc(O)c1`, the GI50 with M14, in the assay on NCI-H460, in the assay with RPMI-8226, in the assay on SNB-75, with HT-29 and in the assay on SR was > 100 µM (inactive) in each case. Besides, the GI50 in the assay with SK-MEL-28, with OVCAR-3, in the assay on EKVX, in the assay on SNB-19, with OVCAR-8 and in the assay with NCI-H226 was > 100 µM (inactive) throughout. Also, the GI50 in the assay on SN12C, in the assay with OVCAR-5, in the assay with NCI-H23, in the assay on HCC 2998 and with UO-31 was > 100 µM (inactive) each time.
In the case of `COc1ccc(/C=C2\C(=O)N(C(=O)c3ccc(NC(C)=O)cc3)N=C2C)cc1`, the GI50 in the assay with M14, in the assay on NCI-H460, with RPMI-8226, with SNB-75, with HT-29 and in the assay with SR was > 100 µM (inactive) throughout. The GI50 in the assay with SK-MEL-28, with OVCAR-3, with EKVX, in the assay with SNB-19, with OVCAR-8 and in the assay with NCI-H226 was > 100 µM (inactive) throughout. In addition, the GI50 in the assay on SN12C, in the assay on OVCAR-5, in the assay on NCI-H23, with HCC 2998 and in the assay with UO-31 was > 100 µM (inactive) in each case.
For `O=[PH](O)c1cccnc1`, the GI50 in the assay with M14, with NCI-H460, with RPMI-8226, in the assay on SNB-75, in the assay on HT-29 and with SR was > 100 µM (inactive) each time. Further, the GI50 with SK-MEL-28, with OVCAR-3, in the assay on EKVX, in the assay with SNB-19, in the assay on OVCAR-8 and in the assay on NCI-H226 was > 100 µM (inactive) each time. The GI50 in the assay on SN12C, with OVCAR-5, in the assay on NCI-H23, with HCC 2998 and with UO-31 was > 100 µM (inactive) in each case.
Regarding `CN1CC[C@]2(C)c3c(O)cccc3CC3CCCC1C32C` (stereo partly drawn), the GI50 is > 100 µM (inactive) in the assay on M14; > 100 µM (inactive) with NCI-H460; > 100 µM (inactive) in the assay with RPMI-8226; 45.4 µM (inactive) in the assay on SNB-75; > 100 µM (inactive) with HT-29; > 100 µM (inactive) with SR. Besides, the GI50 in the assay with SK-MEL-28, with OVCAR-3, in the assay on EKVX, with SNB-19, in the assay with OVCAR-8 and in the assay with NCI-H226 was > 100 µM (inactive) in each case. Also, the GI50 is > 100 µM (inactive) with SN12C; > 100 µM (inactive) in the assay on OVCAR-5; > 100 µM (inactive) in the assay on NCI-H23; 15.8 µM (inactive) with HCC 2998; > 100 µM (inactive) in the assay with UO-31.
Turning to `Cc1cccc2nc3cc(O)cc(O)c3c(O)c12`, the GI50 in the assay on MDA-MB-435 was > 10 µM (inactive); in the assay with M14, > 10 µM (inactive); in the assay on NCI-H460, > 10 µM (inactive); in the assay on RPMI-8226 it was > 10 µM (inactive); with SNB-75, 4.54 µM (inactive); in the assay with HT-29, > 10 µM (inactive). Also, the GI50 in the assay with SK-MEL-28, in the assay with OVCAR-3, with DU-145, in the assay on SNB-19, in the assay with OVCAR-8 and in the assay with NCI-H226 was > 10 µM (inactive) throughout. Also, the GI50 in the assay on SN12C, in the assay on OVCAR-5, in the assay with NCI-H23 and in the assay with UO-31 was > 10 µM (inactive) each time.
